Source: patent US11477967B2, “Microfluidic device, system and methods thereof for measuring and recording electrical signals from a pool of multiple nematodes” (NemaMetrix Inc., priority 2018, dated 2022)

Columns and labels:
Assay type in all cases: in vivo, C. elegans
nematodes = experiment: single-nematode EPG recordings (ScreenChip System) and synthetic composite EPG summed from them
Method: (§1) To obtain nematodes of a consistent size that were compatible with the dimensions of the recording channel 120, we utilized a common procedure to obtain a large number of age synchronized eggs. Eggs were deposited in a culture plate containing food and cultivated at 20 C for 3 days, yielding a large population of young adult nematodes.
To prepare nematodes for recording, 2 mL of “normal M9 buffer solution,” defined in Table 3, was added to a culture plate containing young adult nematodes grown from synchronized eggs. The plate was swirled to lift nematodes into the solution and the contents were poured into a 2 mL Eppendorf tube. Nematodes were cleaned of adherent bacteria and debris by 5 cleaning cycles each of which involved pelleting nematodes in a centrifuge (1.2 g, 30 sec), drawing off the supernatant, and resuspending in M9 buffer. […]
According to circuit theory, (i) the waveform of a composite EPG recorded at electrodes 135 and 145 should be the sum of the voltage differences generated by each nematode at its unique location and orientation with respect to the electrodes and other nematodes, and (ii) the peak frequency of the waveform's power spectrum should represent the average pumping frequency of the population of nematodes between the electrodes. […]

[1] = system: pool of multiple nematodes; experiment: composite EPG from a pool of multiple nematodes, microfluidic device 100 / system 200; conditions: approximately 25 nematodes between electrodes, serotonin M9 buffer solution (10 mM serotonin); peak absent in normal M9 buffer; FIG. 4C
Method: as §1
To prepare nematodes for recording, 2 mL of “normal M9 buffer solution,” defined in Table 3, was added to a culture plate containing young adult nematodes grown from synchronized eggs. The plate was swirled to lift nematodes into the solution and the contents were poured into a 2 mL Eppendorf tube. Nematodes were cleaned of adherent bacteria and debris by 5 cleaning cycles each of which involved pelleting nematodes in a centrifuge (1.2 g, 30 sec), drawing off the supernatant, and resuspending in M9 buffer. To stimulate pharyngeal pumping, the final resuspension used “serotonin M9 buffer solution” which contained 10 mM serotonin in addition to the constituents in Table 3. […]
Two lines of evidence indicate that the recorded activity represents pharyngeal pumping.

[2] = system: pool of multiple nematodes; experiment: composite EPG from a pool of multiple nematodes, microfluidic device 500 / system 600, Solution A versus Solution B; conditions: same pool of nematodes; Solution A normal M9 buffer 16 min, Solution B serotonin M9 buffer 25 min; FIG. 7C
Excerpt: To obtain nematodes of a consistent size that were compatible with the dimensions of the recording channel 515, we used the method of Example 2. Alternative methods using filters can also be used to obtain an age/size synchronized population of nematodes for use. See US Patent Publ. No. 2019/0090458.
To prepare nematodes for recording, we used the method of Example 2, except that the final resuspension used “normal M9 buffer solution,” defined in Table 3.
For filling the microfluidic device, we used the method of Example 2, except that the syringe and tubing were filled with “normal M9 buffer solution.”
At the end of this recording, the normal M9 buffer solution was replaced with Solution B, serotonin M9 buffer solution disclosed in Example 1, without dislodging the original pool of nematodes. Replacement was accomplished by exchanging the syringe and tubing filled with normal M9 buffer solution for a syringe and tubing filled with serotonin M9 buffer solution. […]
The center frequency of this peak is within the expected range of pharyngeal pumping frequency. […] However, as the same population of nematodes was recorded under conditions of the two different buffer solutions in FIG. 7C, but not in FIG. 4C, FIG. 7C establishes, in addition, that the system 600 can be used to measure the effect of drugs or other test compounds on pharyngeal pumping. […]

For NCCc1c[nH]c2ccc(O)cc12 [serotonin], the average pumping frequency (nematodes; 22 nematodes, single-nematode EPGs in serotonin M9 buffer solution (10 mM serotonin), 10-14 min, ± SEM) was 4.9±0.13 Hz, the “peak frequency of power spectrum of synthetic (in silico) composite EPG recording” value (nematodes; sum of all 22 single-nematode EPG measurements in serotonin M9 buffer solution (10 mM serotonin), FIG. 3E) was 5.1 Hz and the “peak of power spectrum of composite EPG” value [1] was 5.6 Hz. The “center frequency of peak of difference trace between power spectra of Solution B and Solution A” value [2] was 5 Hz.
